This note sets out measurements from US10576086B2, “Triazine derivatives as interferon-gamma inhibitors” (University of Greenwich, priority 2015, dated 2020).

The subject of this experiment is IFN-γ production in human peripheral blood mononuclear cells (PBMCs). Kind of experiment: Experiment 1: IFN-γ production by PHA-stimulated human PBMCs, ELISA. In kind it is cell-based. The settings on record: for IFN-γ Concentration, Mean: mean of first three subjects, 24 h. How it is done: The ex vivo activity of various compounds towards suppression of IFN-γ production in human peripheral blood mononuclear cells (PBMCs) was studied.
[…] They were not taking any other prescribed medication that could interfere with the results.
The blood was transferred into 50 ml centrifuge tubes (Corning, USA) containing heparin sodium salt 37.5 mg heparin powder diluted in 300-500 μl phosphate buffered saline (PBS) for 50 ml blood), and centrifuged at 2000 rpm for 10 minutes, and the plasma portion was separated. The plasma was further centrifuged at 3000 rpm for 10 minutes, and the supernatant separated and kept for later use.
The blood cells from the initial centrifugation were diluted with an equal volume of RPMI-1640 (Sigma, UK), and layered (2:1) onto Lymphoprep (Axis-Shield, Norway) in 25 ml universal tubes (Bibby Sterilin, UK) for density gradient centrifugation at 2500 rpm for 30 minutes.
PBMCs (lymphocytes and monocytes) were then removed from the interface, diluted in an equal volume of RPMI-1640 and washed twice by centrifugation at 3000 rpm for 10 minutes.
For testing, the PBMCs were re-suspended in a known volume of culture medium containing RPMI-1640 supplemented with 2 mM L-glutamine, 100 U penicillin, and 100 μg streptomycin (Sigma, UK).
The cell count was determined by the use of a haemocytometer using 10 μl of the cell suspension. The number of cells was determined based on a count in 5 random 1 mm squares.
The cell solution was then diluted with the supplemented RPMI-1640 medium to ensure a cell count of 2×10^6 cells/ml.
The PBMC suspension was added to tissue culture tubes (Bibby Sterilin, UK) with 5% autologous plasma, 5 μg/mlphytohaemaglutinin (PHA) to stimulate T-lymphocyte IFN-γ production, and a solution containing various concentrations of the compound to be studied. A control containing no compound was also cultured for each subject.
In the case of lamotrigine, the isethionate salt was used, and diluted with RPMI-1640 to produce 100 μM, 30 μM, 10 μM and 3 μM solutions that were tested on PBMCs from the first three subjects. With PBMC's from the other two subjects, a 300 μM solution was also tested.
For sipatrigine, the mesylate salt was used, and diluted with RPMI-1640 to produce 30 μM, 10 μM, 3 μM and 1 μM solutions. It was tested on PBMCs from the first three subjects only.
The tubes were incubated at 37° C. for 24 hours under a 5% CO2 atmosphere. After incubation, the cells (>75% viable according to trypan blue test) were centrifuged at 3000 prm for 10 minutes, and the cell-free supernatants were collected and stored at −70° C. before analysis for IFN-γ.
Levels of IFN-γ produced by the PBMCs were determined by the DuoSet ELISA Development system for human IFN-γ (RD Systems, UK), with a sensitivity of 15.6-1000 pg/ml.
Capture antibody, detection antibody, standard and streptavidin-HRP (streptavidin conjugated to horseradish peroxidase) were provided. A 96-well microtitre plate (Corning CoStar, flat bottom, polystyrene, high binding microtitre plate, UK) was coated with 100 μl per well of capture antibody (mouse anti-human IFN-γ at 4.0 μg/ml), sealed and incubated overnight. Unbound capture antibody was washed from the wells three times, using a wash buffer (0.05% Tween 20 in PBS). Block buffer (1% bovine serum albumin (BSA) in PBS) was then added. After incubation for 1 hour, the wells were washed, and sample culture supernatants or standards were added. A 7-point standard curve (in the range 15.6-1000 pg/ml) was produced from […] recombinant human IFN-γ using 2-fold serial dilutions in reagent diluent (0.1% BSA, 0.05% Tween 20 in tris-buffered saline (20 mM Trizma base, 150 mM NaCl)). The sealed plates were left to incubate for 2 hours.
After further washing, the detection antibody (biotinylated goat anti-human IFN-γ at 175 ng/ml) was added, and the plates sealed and incubated for a further 2 hours. […]

With `CN1CCN(c2ncc(-c3cc(Cl)cc(Cl)c3Cl)c(N)n2)CC1` [Sipatrigine, 4-amino-2-(4-methyl-1-piperazinyl)-(2,3,5-trichlorophenyl)-pyrimidine], the “IFN-γ Concentration, Mean” value (1 μM) came out at 1275.07 pg/mL; the “IFN-γ Concentration, Mean” value (3 μM) was 1227.27 pg/mL; the “IFN-γ Concentration, Mean” value (10 μM) was 1331.70 pg/mL; the “IFN-γ Concentration, Mean” value (30 μM) worked out at 892.89 pg/mL. Also, the “inhibition of IFN-γ production (in words)” value (Experiment 1, human PBMCs) is reported as “did not inhibit IFN-γ production”.
